The source of these data is patent US20250049928A1, “ANESTHETIC PRODRUGS AND DERIVATIVES THEREOF FOR PROLONGED SENSORY SELECTIVE NERVE BLOCKAGE” (The Board of Trustees of The University of Alabama, priority 2023, published 2025).

Where “and” joins values, the source holds several entries; their conditions need not be identical. Equal values may be shown once. Entries after “also recorded” stand apart in the source; their conditions may differ. Read-outs that look alike come from different tables or passages of the source.

One data set concerns the target GLUT1 (Homo sapiens, UniProt P11166). The settings on record: cited from earlier work.
Data set [1] relates to rats. The settings on record: rat, in vivo.
Data set [2] relates to sciatic nerve. Description: Rat sciatic nerve block: nociceptive axon blockade (hotplate thermal latency). In kind it is in vivo, Sprague-Dawley rats.
Data set [3] relates to sciatic nerve. Description: Rat sciatic nerve block: motor axon blockade (weight-bearing test). In kind it is in vivo, Sprague-Dawley rats.
Data set [4] concerns rats. Particulars: rat, in vivo. The source holds these as a separate data set.
A short description of another data set: Log P. Particulars: octanol/water.
Another data set concerns the target GLUT3 (Homo sapiens, UniProt P11169). Particulars: read-out: Km for GLUT3; cited from earlier work.
Data set [5] concerns sciatic nerve. The settings on record: rat, in vivo.
Data set [6] has as its system sciatic nerves and surrounding tissues. Particulars: rat, in vivo.
The subject of data set [7] is Esterase (from porcine liver). Particulars: pig.
[8] abbreviates: read-out: Km (transporter protein affinity for sugar molecules).

GLUT1, sequence (P11166 whole entry, species assumed): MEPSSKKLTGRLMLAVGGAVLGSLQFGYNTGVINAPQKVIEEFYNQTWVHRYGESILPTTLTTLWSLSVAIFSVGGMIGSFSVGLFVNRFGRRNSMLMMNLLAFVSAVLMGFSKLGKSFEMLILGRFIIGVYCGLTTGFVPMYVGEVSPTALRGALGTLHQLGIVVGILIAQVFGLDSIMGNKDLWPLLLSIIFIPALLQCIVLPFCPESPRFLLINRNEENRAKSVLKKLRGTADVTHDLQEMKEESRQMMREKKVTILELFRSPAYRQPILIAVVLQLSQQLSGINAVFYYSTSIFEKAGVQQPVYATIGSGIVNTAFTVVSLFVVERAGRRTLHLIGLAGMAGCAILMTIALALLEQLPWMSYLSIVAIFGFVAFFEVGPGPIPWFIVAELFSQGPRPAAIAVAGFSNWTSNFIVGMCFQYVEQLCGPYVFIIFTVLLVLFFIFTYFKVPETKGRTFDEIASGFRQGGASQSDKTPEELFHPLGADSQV
GLUT3, sequence (P11169 whole entry, species assumed): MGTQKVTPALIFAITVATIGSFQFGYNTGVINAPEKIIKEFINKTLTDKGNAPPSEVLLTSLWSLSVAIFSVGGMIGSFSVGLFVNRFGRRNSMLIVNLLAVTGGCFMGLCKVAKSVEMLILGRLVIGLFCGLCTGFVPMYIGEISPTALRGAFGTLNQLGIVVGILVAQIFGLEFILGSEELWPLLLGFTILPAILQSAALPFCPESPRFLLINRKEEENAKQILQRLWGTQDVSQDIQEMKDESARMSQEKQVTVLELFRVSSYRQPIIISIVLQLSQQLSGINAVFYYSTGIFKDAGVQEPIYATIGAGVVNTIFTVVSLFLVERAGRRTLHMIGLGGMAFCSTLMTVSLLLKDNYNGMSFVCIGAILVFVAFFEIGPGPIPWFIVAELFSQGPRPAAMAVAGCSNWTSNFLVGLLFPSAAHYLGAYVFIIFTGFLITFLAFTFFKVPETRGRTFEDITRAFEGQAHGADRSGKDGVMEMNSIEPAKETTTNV

What is called Km is the substrate concentration at which the rate is half of its maximum. Consider `O=C1O[C@H]([C@@H](O)CO)C(=O)C1=O` [DHA, dehydroascorbic acid], for which the Km at GLUT1 (setting [8]) was 1.1 mM.

In the case of `COc1cc(CNC(=O)CCCC/C=C/C(C)C)ccc1OC[C@H]1OC(O)[C@H](O)[C@@H](O)[C@H]1O` (stereo partly shown) [Gal-CAP prodrug, galactose-capsaicin prodrug], in the data set with rats [1], the “frequency of licking within 5 minutes after injection” value is 1±1.41 times and the “total duration of licking behavior” value was 4.55 ± 5.77 s.

With `CCCCN1CCCCC1C(=O)Nc1c(C)cccc1C` (stereo not shown) [bupivacaine, reference compound], the successful sensory blockade result in the data set on sciatic nerve [2] (8.65 mM in 0.3 mL PBS) is on record as “failed to achieve a successful block”. Further, in the data set with sciatic nerve [2] (17.3 mM in 0.3 mL PBS), the “mean duration of sensory block” value was 1.75 ± 0.29 h and the sensory block success came to 100%. For the same compound, the “duration of motor deficits / motor involvement” value in the data set with sciatic nerve [3] (17.3 mM in 0.3 mL PBS) is 1.375 ± 0.48 h.

One may read the logP as a log measure of how a compound divides between an organic and an aqueous phase. Lower therefore signals lower lipophilicity. Consider `COc1cc(CNC(=O)CCCC/C=C/C(C)C)ccc1O` [capsaicin], for which, in the data set with rats [4] (male, Sprague-Dawley), the “rats that developed acute respiratory distress” value stood at 75%, the “rats that developed contralateral nociceptive axon block” value amounted to 50%, the “rats that experienced a seizure” value turned out to be 25% and the “rats with irreversible nociceptive axon blockade in the injected hind limb” value is 25%. In addition, in the data set on rats [4], the “rats exhibiting at least one systemic adverse effect” value is “all rats”. Also, the logP in the data set “Log P” was found to be 3.66. For the same compound, the “successful analgesic block (thermal paw withdrawal latencies >7 seconds)” value (“successful analgesic block” for short) in the data set on sciatic nerve [2] (injection doses above 3.28 μmol) was found to be 100%. Moreover, the “successful analgesic block” value in the data set with sciatic nerve [2] (injection doses above 1 mg, 0.3 mL at left sciatic nerve) is 100%. Moreover, in the data set with sciatic nerve [2] (injection of 6.56 μmol), the “duration of nociceptive axon block” value came to 4.0 ± 2.0 h. Moreover, the “duration of nociceptive axon blockade” value with sciatic nerve [2] (single injection of 2 mg in 0.3 mL at sciatic nerve) was determined as 4 ± 2 h. Further, the “duration of nociceptive axon blockade” value in the data set on sciatic nerve [2] (single injection of 3 mg in 0.3 mL at sciatic nerve) turned out to be 30 ± 12 h. Moreover, the “motor deficits in the injected hind limb” value with sciatic nerve [3] (0.5-3 mg in 0.3 mL at sciatic nerve) is on record as “did not produce any motor deficits”. In addition, the “motor deficits in the injected hind limb” value with sciatic nerve [3] (Example 4, doses in μmol, 0.3 mL PBS) is recorded as “did not produce any motor deficits”.

On to `O=C[C@H](O)[C@@H](O)[C@@H](O)[C@H](O)CO` [galactose], for which the Km at GLUT3 is 8.5 mM; on GLUT1 (setting [8]) it was 15 mM; at GLUT1 (read-out: Km for GLUT1) it was 17 mM.

Take `N[C@H]1C(O)O[C@H](CO)[C@@H](O)[C@@H]1O` (stereo partly shown) [glucosamine]: at GLUT1 (setting [8]), the Michaelis constant (Km) is 2.5 mM.

For the compound galactosamine-fluorescein [Gal-FL], in the data set on sciatic nerve [5], the “mean fluorescent intensity in epineurium/perineurium and inside the nerve” value is “significantly higher”.

Regarding galactose-capsaicin prodrug, in data set [6], the “appearance of surrounding tissues at dissection” value is “did not appear edematous or discolored”, the “microscopic examination for myotoxicity or inflammation” value is listed as “did not reveal significant myotoxicity or inflammation” and the “toluidine blue stained sciatic nerve sections” value was “normal in appearance without evidence of demyelination or axonal degeneration”. For the same compound, in the data set on rats [4], the “capsaicin-related side effects (spontaneous pain behavior, contralateral block, irreversible block, seizure, acute respiratory distress)” value is “did not cause any capsaicin-related side effects”. Further, in the data set on sciatic nerve [2] (rat, in vivo), the “change of nociceptive axon block duration with increasing glucose dose” value is recorded as “decrease in nociceptive axon block duration; also recorded: significant decrease”; the “duration of nociceptive axon blockade” value was 150.0 ± 76.8 h and 234 ± 36 h; the “successful analgesic block” value is 100%. The “motor deficits in the injected hind limb” value in the data set with sciatic nerve [3] (rat, in vivo) is reported as “did not produce any motor deficits”.

In the case of “galacturonic acid-capsaicin prodrug [GalA-CAP prodrug]”, in data set [6], the “Myotoxicity Score (median; range 0-6)” value was 0; the “appearance of surrounding tissues at dissection” value is listed as “did not appear edematous or discolored”; the “myotoxicity score, median for all groups” value came out at 0; the “unmyelinated C-fibers / axon diameter by TEM” value is “not significantly increased”. Besides, in the data set with rats [4], the “capsaicin-related side effects (spontaneous pain behavior, contralateral block, irreversible block, seizure, acute respiratory distress)” value was “did not cause any capsaicin-related side effects” and the “seizures observed (systemic toxicity)” value is given as 2 out of 4. In addition, in the data set with sciatic nerve [2] (rat, in vivo), the “change of nociceptive axon block duration with increasing glucose dose” value is reported as “significantly reduced with increasing glucose dose”; the “duration of nociceptive axon blockade” value was 150.0 ± 76.8 h and 234 ± 37 h and 150 ± 76.84 h; the “successful analgesic block” value stood at 100%; the “time to restoration of full thermal stimulus sensitivity (return to baseline thermal latency)” value was 13 days. Besides, in the data set on rats [1], the “frequency of licking within 5 minutes after injection” value is recorded as 1±0 times and the “total duration of licking behavior” value was 4.28 ± 5.81 s. The Half-lives in [7] is less than 10 min. Besides, the “motor deficits in the injected hind limb” value in the data set with sciatic nerve [3] (rat, in vivo) is “did not produce any motor deficits”.

“glucuronic acid-linked bupivacaine [GluA-Bup]”: in the data set with sciatic nerve [2] (rat, in vivo), the “mean duration of sensory block” value came to 13.0 ± 2.58 h, the “mean duration of sensory blockade” value was 3.75 ± 0.50 h, the sensory block success turned out to be 100% and the successful sensory blockade is 100%. Besides, in the data set with sciatic nerve [3] (rat, in vivo), the “duration of motor deficits / motor involvement” value turned out to be 1.625 ± 0.25 h and the motor deficits entry was “without any motor deficits”.

As to “glycine-capsaicin prodrug [Gly-CAP prodrug]”, in the data set on sciatic nerve [2] (rat, in vivo), the “duration of nociceptive axon blockade” value was determined as 17.33 ± 11.55 h and the “successful nociceptive axon blockade” value worked out at 100%.
